From US20240252488A1 (KOREA RESEARCH INSTITUTE OF CHEMICAL TECHNOLOGY, priority 2020, published 2024)

Assays:
FADD−/− Jurkat cells = experiment: Necroptosis inhibition assay, TNF-α-induced necroptosis (CellTiter-Glo 2.0); format: cell-based, human; conditions: TNF-α 15 ng/mL; for Necroptosis inhibition assay (Rescue %) 1 μM: compound 1 μM; for Necroptosis inhibition assay (Rescue %) 10 μM: compound 10 μM
In short: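 Compound is added to cells at final concentrations of 0.1, 1 and 10 μM and left 30 minutes at room temperature. Necroptosis is induced with 15 ng/mL TNF-α, culture continues 20 to 24 hours at 37° C, and ATP-based luminescence reports viability.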

MLKL [1] = molecular target: T1, MLKL (Homo sapiens, UniProt Q8NB16); experiment: Measurement of binding affinity with MLKL receptor (competitive binding assay, Kd); design: made in house; host or cells: HEK 293 cell line (T7 phage in E. coli BL21-derived host is also described)
T1 sequence (Q8NB16 1-471): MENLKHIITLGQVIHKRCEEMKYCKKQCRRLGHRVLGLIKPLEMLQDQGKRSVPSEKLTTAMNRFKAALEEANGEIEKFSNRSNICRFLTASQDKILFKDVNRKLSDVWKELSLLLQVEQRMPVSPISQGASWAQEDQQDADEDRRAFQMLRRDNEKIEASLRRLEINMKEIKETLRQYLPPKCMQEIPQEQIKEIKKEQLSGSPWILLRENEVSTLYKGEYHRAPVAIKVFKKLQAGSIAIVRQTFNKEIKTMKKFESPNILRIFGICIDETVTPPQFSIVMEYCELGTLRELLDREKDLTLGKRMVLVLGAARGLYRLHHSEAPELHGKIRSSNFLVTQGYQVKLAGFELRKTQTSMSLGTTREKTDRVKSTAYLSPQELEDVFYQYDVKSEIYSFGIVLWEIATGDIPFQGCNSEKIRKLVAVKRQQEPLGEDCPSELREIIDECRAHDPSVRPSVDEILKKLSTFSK
In short: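 MLKL was produced in HEK 293 cells and tagged with DNA for detection. Liganded beads were blocked with excess biotin and washed to cut non-specific binding, then compounds (111× DMSO stocks, 0.9% DMSO in assay) competed for binding. Eluate kinase was measured by qPCR for Kd.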

MLKL [2] = molecular target: T1, MLKL; experiment: MLKL degradation assay in HepG2 cell line (western blot); format: cell-based; design: endogenous in cells; host or cells: HepG2 or HaCaT; conditions: cell line not given; for Degradation assay (Degradation %) 1 μM: compound 1 μM; for Degradation assay (Degradation %) 10 μM: compound 10 μM
In short: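 Chemiluminescent western blot signal reports remaining MLKL protein in HepG2 cells after 20-24 h treatment with compound at a final 1 or 10 μM. Equal protein (10-15 μg, BCA) is loaded per lane.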

## Nc1ncc(-c2cnn([C@H]3CCN(CCOCCOCCNC(=O)CNc4cccc5c4C(=O)N(C4CCC(=O)NC4=O)C5=O)C3)c2)nc1C(=O)OC(C(=O)Nc1ccc(F)cc1)c1ccccc1 (stereo partly drawn) [TDH-263, 2-((4-fluorophenyl)amino)-2-oxo-1-phenylethyl 3-amino-6-(1-((3S)-1-(2-(2-(2-(2-((2-(2,6-dioxopiperidin-3-yl)-1,3-dioxoisoindolin-4-yl)amino)acetamido)ethoxy)ethoxy)ethyl)pyrrolidin-3-yl)-1H-pyrazol-4-yl)pyrazine-2-carboxylate]
FADD−/− Jurkat cells
  Necroptosis inhibition assay (Rescue %) 1 μM: 16.13%
  Necroptosis inhibition assay (Rescue %) 10 μM: 57.97%
MLKL [1]
  Kd: 7.4 nM
MLKL [2]
  Degradation assay (Degradation %) 1 μM: 76.27%
  Degradation assay (Degradation %) 10 μM: 71.82%

## Nc1ncc(-c2cnn([C@H]3CCN(CCOCCOCCNC(=O)CNc4ccc5c(c4)C(=O)N(C4CCC(=O)NC4=O)C5=O)C3)c2)nc1C(=O)OC(C(=O)Nc1ccc(F)cc1)c1ccccc1 (stereo partly drawn) [TDH-264, 2-((4-fluorophenyl)amino)-2-oxo-1-phenylethyl 3-amino-6-(1-((3S)-1-(2-(2-(2-(2-((2-(2,6-dioxopiperidin-3-yl)-1,3-dioxoisoindolin-5-yl)amino)acetamido)ethoxy)ethoxy)ethyl)pyrrolidin-3-yl)-1H-pyrazol-4-yl)pyrazine-2-carboxylate]
FADD−/− Jurkat cells
  Necroptosis inhibition assay (Rescue %) 1 μM: 23.38%
  Necroptosis inhibition assay (Rescue %) 10 μM: 40.72%
MLKL [1]
  Kd: 3.4 nM
MLKL [2]
  Degradation assay (Degradation %) 1 μM: 65.05%
  Degradation assay (Degradation %) 10 μM: 53.98%

## Nc1ncc(-c2cnn([C@H]3CCN(CCOCCOCCNC(=O)COc4cccc5c4C(=O)N(C4CCC(=O)NC4=O)C5=O)C3)c2)nc1C(=O)OC(C(=O)Nc1ccc(F)cc1)c1ccccc1 (stereo partly drawn) [TDH-265, 2-((4-fluorophenyl)amino)-2-oxo-1-phenylethyl 3-amino-6-(1-((3S)-1-(2-(2-(2-(2-((2-(2,6-dioxopiperidin-3-yl)-1,3-dioxoisoindolin-4-yl)oxy)acetamido)ethoxy)ethoxy)ethyl)pyrrolidin-3-yl)-1H-pyrazol-4-yl)pyrazine-2-carboxylate]
FADD−/− Jurkat cells
  Necroptosis inhibition assay (Rescue %) 1 μM: 19.18%
  Necroptosis inhibition assay (Rescue %) 10 μM: 41.68%
MLKL [1]
  Kd: 4.4 nM
MLKL [2]
  Degradation assay (Degradation %) 1 μM: 11.99%
  Degradation assay (Degradation %) 10 μM: 49.83%

## Nc1ncc(-c2cnn([C@H]3CCN(CCOCCOCCNC(=O)COc4ccc5c(c4)C(=O)N(C4CCC(=O)NC4=O)C5=O)C3)c2)nc1C(=O)OC(C(=O)Nc1ccc(F)cc1)c1ccccc1 (stereo partly drawn) [TDH-266, 2-((4-fluorophenyl)amino)-2-oxo-1-phenylethyl 3-amino-6-(1-((3S)-1-(2-(2-(2-(2-((2-(2,6-dioxopiperidin-3-yl)-1,3-dioxoisoindolin-5-yl)oxy)acetamido)ethoxy)ethoxy)ethyl)pyrrolidin-3-yl)-1H-pyrazol-4-yl)pyrazine-2-carboxylate]
FADD−/− Jurkat cells
  Necroptosis inhibition assay (Rescue %) 1 μM: 35.24%
  Necroptosis inhibition assay (Rescue %) 10 μM: 68.2%
MLKL [1]
  Kd: 6 nM
MLKL [2]
  Degradation assay (Degradation %) 1 μM: 18.14%
  Degradation assay (Degradation %) 10 μM: 40.08%

## Nc1ncc(-c2cnn([C@@H]3CCN(CCOCCOCCNC(=O)CNc4cccc5c4C(=O)N(C4CCC(=O)NC4=O)C5=O)C3)c2)nc1C(=O)OC(C(=O)Nc1ccc(F)cc1)c1ccccc1 (stereo partly drawn) [TDH-267, 2-((4-fluorophenyl)amino)-2-oxo-1-phenylethyl 3-amino-6-(1-((3R)-1-(2-(2-(2-(2-((2-(2,6-dioxopiperidin-3-yl)-1,3-dioxoisoindolin-4-yl)amino)acetamido)ethoxy)ethoxy)ethyl)pyrrolidin-3-yl)-1H-pyrazol-4-yl)pyrazine-2-carboxylate]
FADD−/− Jurkat cells
  Necroptosis inhibition assay (Rescue %) 1 μM: 21.58%
  Necroptosis inhibition assay (Rescue %) 10 μM: 60.07%
MLKL [1]
  Kd: 5.7 nM
MLKL [2]
  Degradation assay (Degradation %) 10 μM: 37.75%

## Nc1ncc(-c2cnn([C@@H]3CCN(CCOCCOCCNC(=O)CNc4ccc5c(c4)C(=O)N(C4CCC(=O)NC4=O)C5=O)C3)c2)nc1C(=O)OC(C(=O)Nc1ccc(F)cc1)c1ccccc1 (stereo partly drawn) [TDH-268, 2-((4-fluorophenyl)amino)-2-oxo-1-phenylethyl 3-amino-6-(1-((3R)-1-(2-(2-(2-(2-((2-(2,6-dioxopiperidin-3-yl)-1,3-dioxoisoindolin-5-yl)amino)acetamido)ethoxy)ethoxy)ethyl)pyrrolidin-3-yl)-1H-pyrazol-4-yl)pyrazine-2-carboxylate]
FADD−/− Jurkat cells
  Necroptosis inhibition assay (Rescue %) 1 μM: 21.45%
  Necroptosis inhibition assay (Rescue %) 10 μM: 51.22%
MLKL [1]
  Kd: 6.9 nM
MLKL [2]
  Degradation assay (Degradation %) 1 μM: 7.05%
  Degradation assay (Degradation %) 10 μM: 35.64%

## Nc1ncc(-c2cnn([C@@H]3CCN(CCOCCOCCNC(=O)COc4cccc5c4C(=O)N(C4CCC(=O)NC4=O)C5=O)C3)c2)nc1C(=O)OC(C(=O)Nc1ccc(F)cc1)c1ccccc1 (stereo partly drawn) [TDH-269, 2-((4-fluorophenyl)amino)-2-oxo-1-phenylethyl 3-amino-6-(1-((3R)-1-(2-(2-(2-(2-((2-(2,6-dioxopiperidin-3-yl)-1,3-dioxoisoindolin-4-yl)oxy)acetamido)ethoxy)ethoxy)ethyl)pyrrolidin-3-yl)-1H-pyrazol-4-yl)pyrazine-2-carboxylate]
FADD−/− Jurkat cells
  Necroptosis inhibition assay (Rescue %) 1 μM: 35.71%
  Necroptosis inhibition assay (Rescue %) 10 μM: 81.5%
MLKL [1]
  Kd: 5.4 nM
MLKL [2]
  Degradation assay (Degradation %) 10 μM: 12.14%

## Nc1ncc(-c2cnn([C@@H]3CCN(CCOCCOCCNC(=O)COc4ccc5c(c4)C(=O)N(C4CCC(=O)NC4=O)C5=O)C3)c2)nc1C(=O)OC(C(=O)Nc1ccc(F)cc1)c1ccccc1 (stereo partly drawn) [TDH-270, 2-((4-fluorophenyl)amino)-2-oxo-1-phenylethyl 3-amino-6-(1-((3R)-1-(2-(2-(2-(2-((2-(2,6-dioxopiperidin-3-yl)-1,3-dioxoisoindolin-5-yl)oxy)acetamido)ethoxy)ethoxy)ethyl)pyrrolidin-3-yl)-1H-pyrazol-4-yl)pyrazine-2-carboxylate]
FADD−/− Jurkat cells
  Necroptosis inhibition assay (Rescue %) 1 μM: 38.56%
  Necroptosis inhibition assay (Rescue %) 10 μM: 99.37%
MLKL [1]
  Kd: 6.1 nM
MLKL [2]
  Degradation assay (Degradation %) 1 μM: 19.32%
  Degradation assay (Degradation %) 10 μM: 39.14%

## Nc1ncc(-c2cnn(C3CCN(CC4CCN(CC(=O)N5CC(Nc6cccc7c6C(=O)N(C6CCC(=O)NC6=O)C7=O)C5)CC4)CC3)c2)nc1C(=O)OC(C(=O)Nc1ccc(F)cc1)c1ccccc1 (centres unmarked) [TDH-271, 2-((4-fluorophenyl)amino)-2-oxo-1-phenylethyl 3-amino-6-(1-(1-((1-(2-(3-((2-(2,6-dioxopiperidin-3-yl)-1,3-dioxoisoindolin-4-yl)amino)azetidin-1-yl)-2-oxoethyl)piperidin-4-yl)methyl)piperidin-4-yl)-1H-pyrazol-4-yl)pyrazine-2-carboxylate]
FADD−/− Jurkat cells
  Necroptosis inhibition assay (Rescue %) 1 μM: 45.32%
  Necroptosis inhibition assay (Rescue %) 10 μM: 76.94%
MLKL [1]
  Kd: 85 nM
MLKL [2]
  Degradation assay (Degradation %) 1 μM: 1.47%
  Degradation assay (Degradation %) 10 μM: 4.22%

## Nc1ncc(-c2cnn(C3CCN(CC4CCN(CC(=O)NC5CCN(c6ccc7c(c6)C(=O)N(C6CCC(=O)NC6=O)C7=O)CC5)CC4)CC3)c2)nc1C(=O)OC(C(=O)Nc1ccc(F)cc1)c1ccccc1 (centres unmarked) [TDH-272, 2-((4-fluorophenyl)amino)-2-oxo-1-phenylethyl 3-amino-6-(1-(1-((1-(2-((1-(2-(2,6-dioxopiperidin-3-yl)-1,3-dioxoisoindolin-5-yl)piperidin-4-yl)amino)-2-oxoethyl)piperidin-4-yl)methyl)piperidin-4-yl)-1H-pyrazol-4-yl)pyrazine-2-carboxylate]
FADD−/− Jurkat cells
  Necroptosis inhibition assay (Rescue %) 1 μM: 60.73%
  Necroptosis inhibition assay (Rescue %) 10 μM: 72.92%
MLKL [1]
  Kd: 13 nM
MLKL [2]
  Degradation assay (Degradation %) 1 μM: 23.54%
  Degradation assay (Degradation %) 10 μM: 44.2%

## Nc1ncc(-c2cnn(C3CCN(C(=O)C4CCN(C(=O)C5CCN(c6cccc7c6C(=O)N(C6CCC(=O)NC6=O)C7=O)CC5)CC4)CC3)c2)nc1C(=O)OC(C(=O)Nc1ccc(F)cc1)c1ccccc1 (centres unmarked) [TDH-273, 2-((4-fluorophenyl)amino)-2-oxo-1-phenylethyl 3-amino-6-(1-(1-(1-(1-(2-(2,6-dioxopiperidin-3-yl)-1,3-dioxoisoindolin-4-yl)piperidine-4-carbonyl)piperidine-4-carbonyl)piperidin-4-yl)-1H-pyrazol-4-yl)pyrazine-2-carboxylate]
FADD−/− Jurkat cells
  Necroptosis inhibition assay (Rescue %) 1 μM: 54.02%
  Necroptosis inhibition assay (Rescue %) 10 μM: 34.08%
MLKL [1]
  Kd: 3.5 nM
MLKL [2]
  Degradation assay (Degradation %) 1 μM: 77.5%
  Degradation assay (Degradation %) 10 μM: 61.88%
